# Measurements from patent US8969378B2, “Inhibitor of the differentiation of T cells into Th1 cells” (Kowa Co., Ltd., priority 2007, dated 2015).
# How the values were obtained:
# human T cells = assay: Differentiation of peripheral blood T cells into Th1 / Th2 cells (IL-12, anti-CD3/CD28, flow cytometry); type: cell-based; conditions: FIG. 2; for concentration exhibiting the effect of inhibiting differentiation of T cells into Th1 cells / concentration exhibiting the effect of promoting differentiation of T cells into Th2 cells: human peripheral blood cells, IL-12 100 ng/mL, four days; for concentration exhibiting the effect of inhibiting differentiation of T cells into Th1 cells: CD4-positive IFN-γ-positive cells; for concentration exhibiting the effect of promoting differentiation of T cells into Th2 cells: CD4-positive IL-4-positive cells
# Experimental: Peripheral blood (10 mL) was collected from six healthy adults in heparin, and […] were isolated through the Ficol-Hypaque method (i.e., a customary method). The thus-isolated cells were diluted to 1×10^6/mL and then inoculated into a 24-well culture plate coated with CD3 and CD28 antibodies (Falcon), followed by culturing for four days in the presence of IL-12 (100 ng/mL), to thereby induce differentiation of T cells into Th1 cells. Atorvastatin or pitavastatin (0.01 to 10 μM) was added at the time of initiation of culturing, and the effect of each drug on differentiation of T cells into Th1 cells was examined. After completion of culturing, cells were washed thrice with PBS, and cytokines (IFN-γ and IL-4) in the cells and CD4 on the surfaces of the cells were stained in a conventional manner. The ratio of Th1 (CD4-positive, IFN-γ-positive cells) or Th2 (CD4-positive, IL-4-positive cells) to all the CD4-positive T cells was determined through flow cytometry.
# Specifically, lymphocytes were stimulated with anti-CD3 antibody and anti-CD28 antibody, and the amounts of INF-γ (Th1 cytokine) and IL-4 (Th2 cytokine) in the cells were determined through flow cytometry, to thereby compare pitavastatin with atorvastatin in terms of the effect of inhibiting differentiation of peripheral blood T cells into Th1 cells, and the effect of promoting differentiation of peripheral blood T cells into Th2 cells.
# [1] = tested on: Th1 cells derived from spleen cells of MOG-immunized mice; assay: Inhibition of activation of Th1 cells: IFN-γ production by MOG-stimulated spleen cells of EAE mice (ELISA); type: cell-based, C57BL/6 mice; conditions: FIG. 1; for concentration that significantly reduced the amount of IFN-γ produced by Th1 cells (inhibited activation of Th1 cells): spleen cells of MOG-immunized EAE mice, day 14, stimulated with MOG, IFN-γ in supernatant by ELISA
# Experimental: Five C57BL/6 mice were immunized with myelin oligodendrocyte glycoprotein (MOG), and mice with experimental autoimmune encephalomyelitis ([…] model of multiple sclerosis) were prepared in a conventional manner. On day 14 after immunization, spleen cells were collected from each mouse and cultured in a 24-well culture plate coated with CD3 and CD28 antibodies, and then stimulated with MOG in the presence of pitavastatin or atorvastatin, to thereby activate Th1 cells. The Th1 cytokine (IFN-γ) concentration of the supernatant of the resultant cell culture was determined through ELISA.
Compound,concentration exhibiting the effect of inhibiting differentiation of T cells into Th1 cells (human T cells),concentration exhibiting the effect of promoting differentiation of T cells into Th2 cells (human T cells),concentration that significantly reduced the amount of IFN-γ produced by Th1 cells (inhibited activation of Th1 cells) [1] [µM],Th1/Th2 ratio improving effect relative to atorvastatin (human T cells; versus atorvastatin) [fold],effect of promoting differentiation of T cells into Th2 cells relative to atorvastatin (human T cells; versus atorvastatin) [fold],"effect of inhibiting activation of Th1 cells relative to atorvastatin ([1]; versus atorvastatin, from amount of IFN-γ produced) [fold]"
CC(C)c1c(C(=O)Nc2ccccc2)c(-c2ccccc2)c(-c2ccc(F)cc2)n1CC[C@@H](O)C[C@@H](O)CC(=O)O [atorvastatin],at least 10 μM,at least 10 μM,25,–,–,–
"O=C(O)C[C@H](O)C[C@H](O)/C=C/c1c(C2CC2)nc2ccccc2c1-c1ccc(F)cc1 [pitavastatin, (3R,5S,6E)-7-[2-cyclopropyl-4-(4-fluorophenyl)-3-quinolyl]-3,5-dihydroxy-6-heptenoic acid]",1 µM,1 µM,≥ 10,10,10,2.5
